Measurements reported in patent US20240382494A1, “THERAPEUTIC COMPOUNDS” (priority 2023, published 2024).

What was measured:
SARS-CoV-2 PLpro = SARS-CoV-2 PLpro (Severe acute respiratory syndrome coronavirus 2, UniProt P0DTD1); assay: FRET-based PLpro enzymatic assay; assay type: biochemical; details: 200 nM PLpro, 10 μM FRET substrate, 30 min preincubation at 30° C.; read-out: IC50
Protocol: The SARS-CoV-2 PL^pro enzymatic assays were carried out as follows. The assay was assembled in 96-well plates with 100 μl of 200 nM PL^Pro protein in PL^Pro reaction buffer [50 mM Hepes (pH 7.5), 0.01% Triton X-100, and 5 mM DTT]. Then, 1 μl of testing compound at various concentrations was added to each well and incubated at 30° C. for 30 minutes. The enzymatic reaction was initiated by adding 1 μl of 1 mM FRET substrate (the final substrate concentration is 10 μM). The reaction was monitored in a Cytation 5 image reader with filters for excitation at 360/40 nm and emission at 460/40 nm at 30° C. for 1 hour. The initial velocity of the enzymatic reaction with and without testing compounds was calculated by linear regression for the first 15 minutes of the kinetic progress curve. The IC50 values were calculated by plotting the initial velocity against various concentrations of testing compounds with a dose-response function in Prism 8 software.

[1] = Cytotoxicity assay in Vero E6 cells (neutral red uptake); assay type: cell-based; details: African green monkey; Vero E6 cells, 2 days at 37° C., neutral red uptake; read-out: Vero CC50
Protocol: Briefly, 80.000 cells/ml of the tested cell lines were dispensed into 96-well cell culture plates at 100 μl per well Twenty-four hours later, the growth medium was removed and washed with 150 μl of PBS buffer. Two hundred microliters of fresh serum-free medium containing serial diluted compounds was added to each well. After incubating for 2 days at 37° C., the medium was removed and replaced with 100 μl of DMEM medium containing neutral red (40 μg/ml) and incubated for 2 to 4 hours at 37° C. The amount of neutral red taken up was determined by measuring the absorbance at 540 nm using a Multiskan FC Microplate Photometer (Thermo Fisher Scientific) The CC50 values were calculated from best-fit dose-response curves with variable slope in Prism 8.

Structure (SMILES) | IC50 (SARS-CoV-2 PLpro) | CC50 at 2 days [1]
Cc1ccc(OCCN(C)C)cc1C(=O)N[C@H](C)c1cc(-c2cccs2)nc2ccccc12 [Example 1, (R)-5-(2-(dimethylamino)ethoxy)-2-methyl-N-(1-(2-(thiophen-2-yl)quinolin-4-yl)ethyl)benzamide] | < 0.5 µM | 12.2 ± 0.85 µM
Cc1ccc(OCCN(C)C)cc1C(=O)N[C@@H](C)c1cc(-c2cccs2)nc2ccccc12 [Example 2, (S)-5-(2-(dimethylamino)ethoxy)-2-methyl-N-(1-(2-(thiophen-2-yl)quinolin-4-yl)ethyl)benzamide] | 1 to 5 µM | 11.4 ± 0.79 µM
Cc1ccc(OCCN(C)C)cc1C(=O)N[C@H](C)c1cc(-c2cnn(C(F)F)c2)nc2ccccc12 [Example 3, (R)—N-(1-(2-(1-(difluoromethyl)-1H-pyrazol-4-yl)quinolin-4-yl)ethyl)-5-(2-(dimethylamino)ethoxy)-2-methylbenzamide] | < 0.5 µM | 15.2 ± 2.54 µM
Cc1ccc(OCCN(C)C)cc1C(=O)N[C@H](C)c1cc(-c2ccco2)nc2ccccc12 [Example 4, (R)5-(2-(dimethylamino)ethoxy)-N-(1-(2-(furan-2-yl)quinolin-4-yl)ethyl)-2-methylbenzamide] | < 0.5 µM | 57.3 ± 20.4 µM
Cc1ccc(OCCN(C)C)cc1C(=O)N[C@H](C)c1cc(-c2cncs2)nc2ccccc12 [Example 5, (R)-5-(2-(dimethylamino)ethoxy)-2-methyl-N-(1-(2-(thiazol-5-yl)quinolin-4-yl)ethyl)benzamide] | < 0.5 µM | 44.7 ± 11.7 µM
COCCn1cc(-c2cc([C@@H](C)NC(=O)c3cc(OCCN(C)C)ccc3C)c3ccccc3n2)cn1 [Example 6, (R)-5-(2-(dimethylamino)ethoxy)-N-(1-(2-(1-(2-methoxyethyl)-1H-pyrazol-4-yl)quinolin-4-yl)ethyl)-2-methylbenzamide] | < 0.5 µM | 200 ± 86.4 µM
Cc1ccc(OCCN(C)C)cc1C(=O)N[C@H](C)c1cc(-c2cnn(C)c2)nc2ccccc12 [Example 7, (R)-5-(2-(dimethylamino)ethoxy)-2-methyl-N-(1-(2-(1-methyl-1H-pyrazol-4-yl)quinolin-4-yl)ethyl)benzamide] | < 0.5 µM | –
Cc1ccc(OCCN(C)C)cc1C(=O)N[C@H](C)c1cc(-c2cnn(C3CC3)c2)nc2ccccc12 [Example 8, (R)—N-(1-(2-(1-cyclopropyl-1H-pyrazol-4-yl)quinolin-4-yl)ethyl)-5-(2-(dimethylamino)ethoxy)-2-methylbenzamide] | < 0.5 µM | 63.1 ± 8.7 µM
Cc1ccc(OCCN(C)C)cc1C(=O)N[C@H](C)c1cc(-c2ccc(N)nc2)nc2ccccc12 [Example 9, (R)—N-(1-(2-(6-aminopyridin-3-yl)quinolin-4-yl)ethyl)-5-(2-(dimethylamino)ethoxy)-2-methylbenzamide] | < 0.5 µM | 36.2 ± 6.83 µM
Cc1ccc(OCCN(C)C)cc1C(=O)N[C@H](C)c1cc(-c2cnn(CC(F)(F)F)c2)nc2ccccc12 [Example 10, (R)-5-(2-(dimethylamino)ethoxy)-2-methyl-N-(1-(2-(1-(2,2,2-trifluoroethyl)-1H-pyrazol-4-yl)quinolin-4-yl)ethyl)benzamide] | < 0.5 µM | 60.8 ± 14.1 µM
Cc1ccc(OCCN(C)C)cc1C(=O)N[C@H](C)c1cc(Cl)nc2ccccc12 [Example 11, (R)—N-(1-(2-chloroquinolin-4-yl)ethyl)-5-(2-(dimethylamino)-ethoxy)-2-methylbenzamide] | 0.5 to 1 µM | 101 ± 11.3 µM
Cc1ccc(OCCN(C)C)cc1C(=O)N[C@H](C)c1cc(-c2cnn(CCN(C)C)c2)nc2ccccc12 [Example 12, (R)-5-(2-(dimethylamino)ethoxy)-N-(1-(2-(1-(2-(dimethylamino)ethyl)-1H-pyrazol-4-yl)quinolin-4-yl)ethyl)-2-methylbenzamide] | < 0.5 µM | 114 ± 18.7 µM
Cc1ccc(OCCN(C)C)cc1C(=O)N[C@H](C)c1cc(-c2ccnn2C)nc2ccccc12 [Example 13, (R)-5-(2-(dimethylamino)ethoxy)-2-methyl-N-(1-(2-(1-methyl-1H-pyrazol-5-yl)quinolin-4-yl)ethyl)benzamide] | < 0.5 µM | 60 ± 8.43 µM
Cc1ccc(OCCN(C)C)cc1C(=O)N[C@H](C)c1cc(-c2cnn(C(C)C)c2)nc2ccccc12 [Example 14, (R)-5-(2-(dimethylamino)ethoxy)-N-(1-(2-(1-isopropyl-1H-pyrazol-4-yl)quinolin-4-yl)ethyl)-2-methylbenzamide] | < 0.5 µM | 37.7 ± 5.87 µM
Cc1ccc(OCCN(C)C)cc1C(=O)N[C@@H](C)c1cc(-c2ccco2)nc2ccccc12 [Example 17, (S)-5-(2-(dimethylamino)ethoxy)-N-(1-(2-(furan-2-yl)quinolin-4-yl)ethyl)-2-methylbenzamide] | < 0.5 µM | –
Cc1ccc(OCCN(C)C)cc1C(=O)N[C@H](C)c1cc(-c2cn[nH]c2)nc2ccccc12 [Example 23, (R)—N-(1-(2-(1H-pyrazol-4-yl)quinolin-4-yl)ethyl)-5-(2-(dimethylamino)ethoxy)-2-methylbenzamide] | < 0.5 µM | –
Cc1ccc(OCCN(C)C)cc1C(=O)N[C@H](C)c1cc(-n2ccnc2)nc2ccccc12 [Example 46, (R)—N-(1-(2-(1H-imidazol-1-yl)quinolin-4-yl)ethyl)-5-(2-(dimethylamino)ethoxy)-2-methylbenzamide] | < 0.5 µM | –
Cc1ccc(OCCN(C)C)cc1C(=O)N[C@H](C)c1cc(-c2cnc3[nH]ncc3c2)nc2ccccc12 [Example 49, (R)—N-(1-(2-(1H-pyrazolo[3,4-b]pyridin-5-yl)quinolin-4-yl)-ethyl)-5-(2-(dimethylamino)-ethoxy)-2-methylbenzamide] | – | > 250 µM
COc1ncc(-c2cc([C@@H](C)NC(=O)c3cc(OCCN(C)C)ccc3C)c3ccccc3n2)cn1 [Example 62, (R)-5-(2-(dimethylamino)ethoxy)-N-(1-(2-(2-methoxy-pyrimidin-5-yl)quinolin-4-yl)ethyl)-2-methylbenzamide] | > 5 µM | –
Cc1ccc(OCCN(C)C)cc1C(=O)N[C@H](C)c1cc(-c2ccc(CN3CCOCC3)o2)nc2ccccc12 [Example 72, (R)-5-(2-(dimethylamino)ethoxy)-2-methyl-N-(1-(2-(5-(morpholinomethyl)furan-2-yl)quinolin-4-yl)ethyl)benzamide] | < 0.5 µM | –
Cc1ccc(OC[C@@H]2CCN2C)cc1C(=O)N[C@H](C)c1cc(-c2cnn(C)c2)nc2ccccc12 [Example 75, 2-methyl-N—((R)-1-(2-(1-methyl-1H-pyrazol-4-yl)quinolin-4-yl)ethyl)-5-(((S)-1-methylazetidin-2-yl)methoxy)benzamide] | < 0.5 µM | –
Cc1ccc(N2CCN(C)[C@H](C)C2)cc1C(=O)N[C@H](C)c1cc(-c2cnn(C)c2)nc2ccccc12 [Example 79, 5-((R)-3,4-dimethylpiperazin-1-yl)-2-methyl-N—((R)-1-(2-(1-methyl-1H-pyrazol-4-yl)quinolin-4-yl)ethyl)benzamide] | < 0.5 µM | –
Cc1ccc(N2C[C@H]3CN(C)C[C@H]3C2)cc1C(=O)N[C@H](C)c1cc(-c2cnn(C)c2)nc2ccccc12 [Example 81, 2-methyl-N—((R)-1-(2-(1-methyl-1H-pyrazol-4-yl)quinolin-4-yl)ethyl)-5-((3aR,6aS)-5-methylhexahydropyrrolo[3,4-c]pyrrol-2(1H)-yl)benzamide] | < 0.5 µM | –
Cc1ccc(OC[C@H]2CCCN2C)cc1C(=O)N[C@H](C)c1cc(-c2cnn(C)c2)nc2ccccc12 [Example 83, 2-methyl-N—((R)-1-(2-(1-methyl-1H-pyrazol-4-yl)quinolin-4-yl)ethyl)-5-(((R)-1-methylpyrrolidin-2-yl)methoxy)benzamide] | < 0.5 µM | –
CCn1ccc(-c2cc([C@@H](C)NC(=O)c3cc(OC[C@@H]4CCN4C)ccc3C)c3ccccc3n2)n1 [Example 105, N—((R)-1-(2-(1-ethyl-1H-pyrazol-3-yl)quinolin-4-yl)ethyl)-2-methyl-5-(((S)-1-methyl-azetidin-2-yl)methoxy)benzamide] | < 0.5 µM | –
CCn1ccc(-c2cc([C@@H](C)NC(=O)c3cc(OC[C@@H]4CCCN4C)ccc3C)c3ccccc3n2)n1 [Example 109, N—((R)-1-(2-(1-ethyl-1H-pyrazol-3-yl)quinolin-4-yl)ethyl)-2-methyl-5-(((S)-1-methylpyrrolidin-2-yl)methoxy)benzamide] | – | 27 ± 1.66 µM
Cc1ccc(N2CCN(C)CC2)cc1C(=O)NC1(c2cc(-c3cnn(C)c3)nc3ccccc23)CC1 [Example 111, 2-methyl-N-(1-(2-(1-methyl-1H-pyrazol-4-yl)quinolin-4-yl)cyclopropyl)-5-(4-methylpiperazin-1-yl)benzamide] | – | > 150 µM
Cc1ccc(N2C[C@H]3CN(C)C[C@H]3C2)cc1C(=O)NC1(c2cc(-c3cnn(C)c3)nc3ccccc23)CC1 [Example 113, 2-methyl-N-(1-(2-(1-methyl-1H-pyrazol-4-yl)quinolin-4-yl)cyclopropyl)-5-((3aR,6aS)-5-methylhexahydropyrrolo[3,4-c]pyrrol-2(1H)-yl)benzamide] | – | 56.1 µM
